The values below come from EP4603105A1, “PHARMACEUTICAL COMPOSITION CONTAINING CYCLIC COMPOUND HAVING SELECTIVE KRAS INHIBITORY EFFECT AGAINST HRAS AND NRAS” (CHUGAI SEIYAKU KABUSHIKI KAISHA, priority 2022, dated 2024).

Assay [1] relates to human lung cancer strain NCI-H441. In kind it is cell-based. A digest of the protocol:
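Step one: dispense the test compound in serial DMSO dilutions. Step three: add the reagent and measure […].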

In assay [2] the target is GDP-bound NRAS wild-type protein (Homo sapiens, UniProt P01111). Kind of assay: Binding to NRAS by surface plasmon resonance (SPR), KD and KD ratio to KRAS. The conditions noted are these: ratio of KD for GDP-bound NRAS wild-type protein to KD for KRAS. The procedure, abridged:
(§1)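 Biotinylated GDP-bound RAS was captured at about 100–300 RU. Running buffer: HBS pH 7.4, 10 mM MgCl2, 10 µM GDP, 1 mM DTT, 0.01% Tween 20, 4% DMSO.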
For orientation: SPR reads the build-up and loss of mass on a sensor chip optically.

A further assay has as its target HRAS wild-type protein (Homo sapiens, UniProt P01112). Briefly: Binding to HRAS by surface plasmon resonance (SPR), KD and KD ratio to KRAS. To be noted: ratio of KD for HRAS wild-type protein to KD for KRAS. The procedure, abridged:
as §1

Chain of GDP-bound NRAS wild-type protein (P01111 whole entry): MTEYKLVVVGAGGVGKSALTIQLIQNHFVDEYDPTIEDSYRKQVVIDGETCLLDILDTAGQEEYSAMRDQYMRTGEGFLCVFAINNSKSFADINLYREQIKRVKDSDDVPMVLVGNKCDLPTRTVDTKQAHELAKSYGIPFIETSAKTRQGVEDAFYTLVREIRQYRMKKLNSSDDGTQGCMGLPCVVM
Chain of HRAS wild-type protein (P01112 whole entry): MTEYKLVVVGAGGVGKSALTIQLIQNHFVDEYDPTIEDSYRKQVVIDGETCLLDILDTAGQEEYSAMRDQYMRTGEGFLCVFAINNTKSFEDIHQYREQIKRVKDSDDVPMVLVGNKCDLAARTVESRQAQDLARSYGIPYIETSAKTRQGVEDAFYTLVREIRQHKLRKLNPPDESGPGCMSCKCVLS

In turn, `CCO[C@@H]1C[C@H]2C(=O)NC3(CC(C)(C)C3)C(=O)N(C)[C@@H](C(CC)CC)C(=O)N(C)[C@H](C(=O)N(C)C)CC(=O)N(C)[C@H]3CCCCCc4ccc(cc4)C[C@@H](C(=O)N(C)CC(=O)N[C@@H](CCc4ccc(C(F)(F)F)c(OC)c4)C(=O)N2C1)N1CC/C=C\C[C@@H](C1=O)N(C)C(=O)CN(C)C(=O)[C@H]([C@@H](C)CC)NC3=O` [PP3035] returned an IC50 in assay [1] of 4.2 nM. For the same molecule, in assay [2], the “NRAS /KRAS” value is “AA (a compound having 20 or more is denoted as AA)”. Moreover, the “HRAS /KRAS” value on HRAS wild-type protein was “A (a compound having 10 or more and less than 20 is denoted as A)”.

In assay [1], `CCO[C@@H]1C[C@H]2C(=O)NC3(CC(C)(C)C3)C(=O)N(C)[C@@H](C3CCCC3)C(=O)N(C)[C@H](C(=O)N3CCCCC3)CC(=O)N(C)[C@H]3CCCCCc4ccc(cc4)C[C@@H](C(=O)N(C)CC(=O)N[C@@H](CCc4ccc(C(F)(F)F)c(OC)c4)C(=O)N2C1)N1CC/C=C\C[C@@H](C1=O)N(C)C(=O)CN(C)C(=O)[C@H]([C@@H](C)CC)NC3=O` [PP3036] yielded an IC50 of 8 nM. For the same molecule, the “NRAS /KRAS” value in assay [2] is “A (a compound having 10 or more and less than 20 is denoted as A)”. Besides, the “HRAS /KRAS” value on HRAS wild-type protein was “B (a compound having 3 or more and less than 10 is denoted as B)”.

In turn, `CCO[C@@H]1C[C@H]2C(=O)NC3(CC(C)(C)C3)C(=O)N(C)[C@@H](C3CCCC3)C(=O)N(C)[C@H](C(=O)N3CCCC3)CC(=O)N(C)[C@H]3CCCCCc4ccc(cc4)C[C@@H](C(=O)N(C)CC(=O)N[C@@H](CCc4ccc(C(F)(F)F)c(OC)c4)C(=O)N2C1)N1CC/C=C\C[C@@H](C1=O)N(C)C(=O)CN(C)C(=O)[C@H]([C@@H](C)CC)NC3=O` [PP3037] had an IC50 in assay [1] of 3.4 nM. Moreover, the “NRAS /KRAS” value in assay [2] was “A (a compound having 10 or more and less than 20 is denoted as A)”. Moreover, the “HRAS /KRAS” value on HRAS wild-type protein was “B (a compound having 3 or more and less than 10 is denoted as B)”.

`CCCO[C@@H]1C[C@H]2C(=O)NC3(CC(C)(C)C3)C(=O)N(C)[C@@H](C(CC)CC)C(=O)N(C)[C@H](C(=O)N(C)C)CC(=O)N(C)[C@H]3CCCCc4ccc(cc4)C[C@@H](C(=O)N(C)CC(=O)N[C@@H](CCc4ccc(C(F)(F)F)c(OC)c4)C(=O)N2C1)N1CC/C=C\C[C@@H](C1=O)N(C)C(=O)CN(C)C(=O)[C@H]([C@@H](C)CC)NC3=O` [PP3038] displayed an IC50 in assay [1] of 3.1 nM. Moreover, the “NRAS /KRAS” value in assay [2] was “A (a compound having 10 or more and less than 20 is denoted as A)”. Moreover, the “HRAS /KRAS” value on HRAS wild-type protein is “A (a compound having 10 or more and less than 20 is denoted as A)”.

Molecule `CCO[C@@H]1C[C@H]2C(=O)NC3(CCC3)C(=O)N(C)[C@@H](C(CC)CC)C(=O)N(C)[C@H](C(=O)N3CCCC3)CC(=O)N(C)[C@H]3CCC/C=C/c4ccc(cc4)C[C@@H](C(=O)N(C)CC(=O)N[C@@H](CCc4ccc(Cl)c(Cl)c4)C(=O)N2C1)N1CC/C=C\C[C@@H](C1=O)N(C)C(=O)CN(C1CC1)C(=O)[C@H]([C@@H](C)CC)NC3=O` [PP3040] displayed an IC50 in assay [1] of 10 nM. Further, the “NRAS /KRAS” value in assay [2] is “AA (a compound having 20 or more is denoted as AA)”. Besides, the “HRAS /KRAS” value on HRAS wild-type protein was “A (a compound having 10 or more and less than 20 is denoted as A)”.

The molecule `CCO[C@@H]1C[C@H]2C(=O)NC3(CC(C)(C)C3)C(=O)N(C)[C@@H](C(CC)CC)C(=O)N(C)[C@H](C(=O)N(C)C)CC(=O)N(C)[C@H]3CCCC/C=C/c4ccc(cc4)C[C@@H](C(=O)N(C)CC(=O)N[C@@H](CCc4cc(F)c(C(F)(F)F)c(F)c4)C(=O)N2C1)N1CC/C=C\C[C@@H](C1=O)N(C)C(=O)CN(C)C(=O)[C@H]([C@@H](C)CC)NC3=O` [PP3044] registered an IC50 in assay [1] of 7.1 nM. Moreover, the “NRAS /KRAS” value in assay [2] is given as “AA (a compound having 20 or more is denoted as AA)”. Also, the “HRAS /KRAS” value at HRAS wild-type protein is “A (a compound having 10 or more and less than 20 is denoted as A)”.

For orientation: IC50 means the concentration that inhibits the measured activity by half. The low end stands for inhibition by little substance, the high end for a need for much substance.
